# According to PMC9926489, “Chemical Optimization of Selective Pseudomonas aeruginosa LasB Elastase Inhibitors and Their Impact on LasB-Mediated Activation of IL-1β in Cellular and Animal Infection Models” (ACS Infectious Diseases, 2023):
# pIC50, pKi: −log10 of the molar value.
# Assays:
# [1] = molecular target: T1, LasB Q102R, S241G, D244N, K282N, R471S (Pseudomonas aeruginosa, UniProt P14756, D244N/K282N/R471S/S241G); assay: LasB variant inhibition, culture supernatant: five substitutions; format: biochemical, P. aeruginosa
# T1 construct: Most changes were identified in the mature peptide, however some occurred in the propeptide domain; endogenous in cells; host or cells: P. aeruginosa clinical CF isolate, culture supernatant
# T1 sequence (P14756 198-498, looked up, stated change not applied): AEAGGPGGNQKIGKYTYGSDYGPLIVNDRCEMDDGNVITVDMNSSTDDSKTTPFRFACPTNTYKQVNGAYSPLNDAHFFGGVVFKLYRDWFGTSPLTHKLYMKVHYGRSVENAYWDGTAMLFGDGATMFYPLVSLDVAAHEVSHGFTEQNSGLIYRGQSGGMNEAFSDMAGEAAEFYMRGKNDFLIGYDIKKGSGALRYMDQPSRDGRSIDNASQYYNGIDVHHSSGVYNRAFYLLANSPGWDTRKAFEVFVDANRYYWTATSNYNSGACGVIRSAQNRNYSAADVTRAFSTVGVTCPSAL
# Text: (§1) Compounds 12 and 16 were discovered as a result of optimizing potency against the LasB protein expressed from the wild-type (WT) reference strain P. aeruginosa PAO1. To understand the relative prevalence of the WT LasB protein versus other variants in clinical respiratory P. aeruginosa strains, the full-length lasB gene was amplified by PCR from 255 clinical isolates (obtained from CF sputum samples). […] Most changes were identified in the mature peptide, however some occurred in the propeptide domain, which could affect LasB processing (marked in italics in Table 4).
# (§2) LasB inhibition assays were performed using purified LasB enzyme (1 ng/well) for compound screening or using culture supernatants (prepared as described in the ECR assay) for testing LasB variants. Hydrolysis of the fluorogenic peptide substrate 2-aminobenzoyl-Ala-Gly-Leu-Ala-4-nitrobenzylamide (Abz-AGLA-Nba; Peptide International) in 50 mM Tris-HCl (pH 7.4), supplemented with 2.5 mM CaCl2 was followed using an Envision microplate reader (PerkinElmer) at 315 nm excitation and 430 nm emission. […] IC50 values were determined from Hill plots using Dotmatics Studies ELN software. For the mechanism of inhibition studies, hydrolysis rates were measured in the presence of variable concentrations of substrate and inhibitor, and the inhibition constant (Ki) was determined using Dixon plot analysis.[31]
# [2] = molecular target: T2, purified LasB (Pseudomonas aeruginosa, UniProt P14756); assay: Inhibition of LasB-mediated proteolysis of pro-IL-1β-derived peptide Sub115; format: biochemical, P. aeruginosa
# T2 construct: The mature LasB protein is a 33 kDa metalloprotease, which is secreted from P. aeruginosa; host or cells: P. aeruginosa PAO1 (native secretion, culture supernatant)
# T2 sequence (P14756 198-498): as the sequence (P14756 198-498, looked up, stated change not applied) above
# Text: Previous studies have shown that LasB cleaves the N-terminal domain of pro-IL-1β, thereby generating a mature active form of IL-1β in a manner analogous to the normal host activation mechanism involving cleavage by caspases.[16] This activity can be followed spectrophotometrically via hydrolysis of an internally quenched fluorescent peptide Sub115 (McA-HDAPVRSLN-K-Dnp), which incorporates the LasB cleavage site from pro-IL-1β. To determine whether compounds 12 and 16 were able to inhibit this activity, Sub115 hydrolysis was measured in the presence of varying concentrations of substrate and inhibitors (Figure 2B). […] These values, although still submicromolar, were higher than those determined with the Abz-AGLA-Nba hydrolysis assay, perhaps due to the different ion composition of the respective assay buffers.
# The peptide HDAPVRSLN, corresponding to amino acids 115–123 of the reference human pro-IL-1β sequence (UniProt: PO1584), was labeled on the N-terminus with Mca and on the C-terminus with Lys-Dnp (CPC Scientific) to generate an internally quenched fluorescent peptide (Sub115). […] The reaction was continuously monitored using a Victor multimode plate reader (PerkinElmer) with excitation at 355 nm and emission at 450 nm, and initial kinetic velocity was calculated. Inhibitory constants (Ki) were determined (two independent replicates) using a competitive inhibitor model.
# [3] = Mouse pharmacokinetics, lung epithelial lining fluid (ELF); format: in vivo; settings: for ELF concentration (C0) relative to LasB Ki: 10 mg/kg IV; for Kp / C0 / AUC(0-t) / clearance / half-life: female, ICR (CD-1); for Kp: lung epithelial lining fluid (ELF) and plasma, iv, read-out: lung penetration (AUClast ELF/AUClast plasma); for Kp / lung penetration (AUClast plasma/AUClast ELF): 10 mg/kg; for Kp / C0 / AUC(0-t) / clearance / half-life / lung penetration (AUClast plasma/AUClast ELF): single 10 mg/kg IV dose; for C0 / AUC(0-t) / clearance / half-life: lung epithelial lining fluid (ELF), epithelial lining fluid; for AUC(0-t): read-out: ELF AUClast; for clearance: read-out: ELF CL; for half-life: read-out: ELF t1/2 (converted)
# Experimental: The PK parameters of compounds 12 and 16 were investigated in both plasma and lung epithelial lining fluid (ELF) after intravenous (IV) administration of compounds at 10 mg/kg in mice (Figure 4 and Table 5). […] Accordingly, these levels of lung penetration (9.5 and 5.2%, respectively) warranted the evaluation of the compounds in an animal model of lung infection using IV dosing.
# Unrestrained, nonanesthetized mice (Female ICR (CD-1); Age 5–6 weeks; Size 22 ± 2 g; specific pathogen-free (SPF)) were injected IV with test article formulations via the tail vein. Animals were sacrificed by cardiac puncture under CO2 euthanasia at 0.08, 0.25, 1, 2, 4, 8, and 24 h post dosing. Blood was drawn into tubes coated with EDTA-K3, mixed gently and plasma was then harvested and kept frozen at −70 °C until further processing. To collect […] (BALF), 0.5 mL of PBS was administered once through a tracheal cannula after which about 0.2 to 0.3 mL of BALF was obtained. The BALF was kept on ice and centrifuged within 1 h of collection and the supernatant was harvested and kept frozen at −70 °C. Plasma and BALF samples were analyzed by LC-MS/MS (AB SCIEX API 3000 mass spectrometer). The apparent ELF volume of each BALF sample was estimated using urea as an endogenous marker of the ELF dilution. The urea concentrations in BALF and plasma samples were determined with the QuantiChrom Urea Assay Kit (DIUR-100) (BioAssay Systems) following the manufacturer’s protocol. For each BALF sample, the drug concentration in ELF was calculated as follows: drug concentrationELF = drug concentrationBALF × (urea concentrationplasma/urea concentrationBALF). The PK parameters of each compound after IV dosing (t1/2, C0, AUClast, and CL) were obtained from the noncompartmental analysis (NCA) of the plasma data using WinNonlin.
# [4] = molecular target: T3, LasB N68S, T120I, A122T, S241G, S436L (Pseudomonas aeruginosa, UniProt P14756, S241G/S436L); assay: LasB variant inhibition, culture supernatant: N68S, T120I, A122T, S241G, S436L; format: biochemical, P. aeruginosa
# T3 construct: Most changes were identified in the mature peptide, however some occurred in the propeptide domain; endogenous in cells; host or cells: P. aeruginosa clinical CF isolate, culture supernatant
# T3 sequence (P14756 198-498, looked up, stated change not applied): as above
# Text: as §1, §2
smiles,measurement,setting,value
COc1cc2sc(CNC(=O)C3(CC(=O)O)Cc4ccccc4C3)nc2cc1OCCC[N+](C)(C)C [Compound 12],pIC50,[1],6.74
same,pKi,[2],6.15
same,ELF concentration (C0) relative to LasB Ki,[3],over 100 fold
same,Kp,[3],0.095
same,C0,[3],2700 ng/mL
same,AUC(0-t),[3],57700 ng·h/mL
same,clearance,[3],1.5 mL/min/kg
same,half-life,[3],25.8 h
same,lung penetration (AUClast plasma/AUClast ELF),[3],9.54%
same,pIC50,[4],6.57
COc1cc2sc(CNC(=O)C3(CC(=O)O)Cc4cc(F)c(F)cc4C3)nc2cc1OCCC[N+](C)(CCO)CCO [Compound 16],pIC50,[1],6.75
same,pKi,[2],6.32
same,ELF concentration (C0) relative to LasB Ki,[3],over 100 fold
same,Kp,[3],0.052
same,C0,[3],2700 ng/mL
same,AUC(0-t),[3],27000 ng·h/mL
same,clearance,[3],5.2 mL/min/kg
same,half-life,[3],9.5 h
same,lung penetration (AUClast plasma/AUClast ELF),[3],5.22%
same,pIC50,[4],6.60
